Assays:
[1] = system: CT-DNA (double-stranded calf-thymus DNA); test: DNA binding by UV-Vis spectra (titration with CT-DNA); conditions: 20 µM compound, 0–40 µM DNA, Tris-HCl pH 7.4, room temperature
[2] = system: MDA-MB 231 (human breast adenocarcinoma); test: MTS cytotoxicity assay, MDA-MB 231 cells; type: cell-based; conditions: 48 h of incubation
Protocol: (§1) For the evaluation of the cytotoxic effects of the complexes and ligand two human cancer cell lines were used, namely MDA-MB 231 (human breast adenocarcinoma) and LoVo (human colon adenocarcinoma); a normal cell line, human umbilical vein endothelial cells (HUVEC), was used as a reference. […] After 24 h and 48 h, respectively, cell viability was evaluated through MTS assay (data shown in Figures S16–S18) and the IC50 values were calculated (Table 5). The cytotoxicity assay is based on the ability of metabolically active cells to reduce MTS, a yellow tetrazolium salt, to the colored formazan, soluble in the culture medium; the concentration of formazan can be spectrophotometrically determined. […] PES is a cationic dye with high chemical stability that binds to MTS and forms a stable solution. […] The reduced MTS to formazan was spectrophotometrically measured at λ = 492 nm. The test was run on two cancer cell lines, LoVo and MDA-MB 231, and on a normal cell line, HUVEC. […] Cell viability data were obtained in triplicate (n = 3) and expressed as mean values ± standard deviations (SD). […] All assays were performed in 96-well microtiter plates with flat bottom (Falcon), using CellTiter 96 Aqueous One Solution Cell Proliferation Assay (Promega), an MTS-based colorimetric assay. The formazan was spectrophotometrically measured using the Tecan GENios Spectrophotometer.

EB-DNA system (CT-DNA) = test: Competitive binding assay with ethidium bromide (EB) through fluorescence spectroscopy; design: species or system calf; conditions: 10 µM CT-DNA, 2 µM EB; for Ksv (Stern-Volmer quenching constant, EB-DNA system): 0–40 µM compound, λex 500 nm; for K50 (EB Displacement Assay): concentration corresponding to 50% binding
Description: The manner of binding to the DNA macromolecule can be investigated through competitive binding studies with ethidium bromide (3,8-diamino-5-ethyl-6-phenylphenanthridinium bromide), a fluorescent dye; due to its aromatic ring, it can intercalate between two adjacent base pairs in the DNA structure and form a complex which emits fluorescent light; displacing EB results in a quenching effect. The Stern-Volmer constant (KSV) and the dissociation constant (K50) have been calculated from the resulting data.
Competitive binding studies were carried out on a Jasco FP 6500 fluorometer at room temperature, using quartz cells of 1 cm path-length. The fluorescence spectra were recorded on 1.6 mL samples containing 10 µM CT-DNA and 2 µM EB in the absence and presence of increasing amounts (0–40 µM with an increment of 5 µM) of complexes and free ligands, respectively, after being kept in contact for 10 min at room temperature, under continuous stirring and in the dark. The excitation wavelength used was 500 nm and the spectra was recorded in the 520–800 nm range. Two control samples were used, the first one containing DMSO, DNA and EB and the second one just the complex.
Data from the assay can be interpreted using the classical Stern-Volmer equation (Equation (3)):(3) F0/F=1+ KSV·[Q] where F0 and F are the fluorescence intensities of the EB-DNA samples in the absence and presence of the tested compounds and [Q] is the concentration of the compound; KSV is the Stern-Volmer constant and can be calculated from the plot of F0/F vs. [Q] as the slope.
The ratio of binding relative to the control sample exposed only to DMSO was plotted against the logarithm of concentration. The data points were fitted using the modified Hill function with offset (Origin®) (Equation (4)):(4) y=A1+(A2−A1)×x^n/K50^n+x^n where y is the ratio of binding (F/F0) and x is the concentration, A1 is the minimum of y values, A2 is the maximum of y values, K50 is the concentration corresponding to 50% binding and n is the Hill coefficient.

Apo-transferrin (apo-Tf) = molecular target: T1, Apo-transferrin (apo-Tf) (Homo sapiens, UniProt P02787); test: Fluorescence quenching of apo-transferrin; type: binding; conditions: 298 K; for Ksv (Stern-Volmer constant), apo-Tf: 1 µM apo-Tf, 0–8 µM compound, pH 7.4; for Kq (bimolecular quenching constant), apo-Tf: from KSV = Kq τ0; for fa (fraction of fluorophore accessible to the quencher), apo-Tf: modified Stern-Volmer; for Kd: read-out: Kd, apo-Tf
T1 construct: purchased Sigma Aldrich Chemical Co. (Schnelldorf, Germany)

[3] = molecular target: T2, Human serum albumin (HSA) (Homo sapiens, UniProt P02768)
[4] = system: HUVEC (normal human umbilical vein endothelial cells); test: MTS cytotoxicity assay, HUVEC normal cells; type: cell-based; conditions: 48 h of incubation
Protocol: as §1

[5] = molecular target: T2, Human serum albumin (HSA); test: Fluorescence quenching of human serum albumin; conditions: 298 K; for Ksv (Stern-Volmer constant), HSA: 2.5 µM HSA, 0–8 µM compound, pH 7.4; for Kq (bimolecular quenching constant), HSA: from KSV = Kq τ0; for fa (fraction of fluorophore accessible to the quencher), HSA: modified Stern-Volmer
[6] = system: LoVo (human colon adenocarcinoma); test: MTS cytotoxicity assay, LoVo cells; type: cell-based; conditions: 48 h of incubation
Protocol: as §1

T2 sequence (P02768 25-609): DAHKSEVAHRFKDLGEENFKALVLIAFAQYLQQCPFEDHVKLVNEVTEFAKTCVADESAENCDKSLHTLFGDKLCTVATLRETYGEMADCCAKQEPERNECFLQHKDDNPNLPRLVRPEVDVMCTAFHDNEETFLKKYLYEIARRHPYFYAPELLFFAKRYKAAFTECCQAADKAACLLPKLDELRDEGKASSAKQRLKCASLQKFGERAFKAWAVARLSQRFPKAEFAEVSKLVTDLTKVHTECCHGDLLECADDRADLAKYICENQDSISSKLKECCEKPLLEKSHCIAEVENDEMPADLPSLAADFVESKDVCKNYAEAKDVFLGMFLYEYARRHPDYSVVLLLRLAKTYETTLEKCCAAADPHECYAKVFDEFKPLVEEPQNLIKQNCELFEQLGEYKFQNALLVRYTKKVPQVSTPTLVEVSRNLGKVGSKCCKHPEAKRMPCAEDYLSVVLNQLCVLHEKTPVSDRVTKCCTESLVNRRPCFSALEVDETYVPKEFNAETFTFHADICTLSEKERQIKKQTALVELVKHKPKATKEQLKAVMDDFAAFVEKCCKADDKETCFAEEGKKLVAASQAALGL
T1 sequence (P02787 20-698): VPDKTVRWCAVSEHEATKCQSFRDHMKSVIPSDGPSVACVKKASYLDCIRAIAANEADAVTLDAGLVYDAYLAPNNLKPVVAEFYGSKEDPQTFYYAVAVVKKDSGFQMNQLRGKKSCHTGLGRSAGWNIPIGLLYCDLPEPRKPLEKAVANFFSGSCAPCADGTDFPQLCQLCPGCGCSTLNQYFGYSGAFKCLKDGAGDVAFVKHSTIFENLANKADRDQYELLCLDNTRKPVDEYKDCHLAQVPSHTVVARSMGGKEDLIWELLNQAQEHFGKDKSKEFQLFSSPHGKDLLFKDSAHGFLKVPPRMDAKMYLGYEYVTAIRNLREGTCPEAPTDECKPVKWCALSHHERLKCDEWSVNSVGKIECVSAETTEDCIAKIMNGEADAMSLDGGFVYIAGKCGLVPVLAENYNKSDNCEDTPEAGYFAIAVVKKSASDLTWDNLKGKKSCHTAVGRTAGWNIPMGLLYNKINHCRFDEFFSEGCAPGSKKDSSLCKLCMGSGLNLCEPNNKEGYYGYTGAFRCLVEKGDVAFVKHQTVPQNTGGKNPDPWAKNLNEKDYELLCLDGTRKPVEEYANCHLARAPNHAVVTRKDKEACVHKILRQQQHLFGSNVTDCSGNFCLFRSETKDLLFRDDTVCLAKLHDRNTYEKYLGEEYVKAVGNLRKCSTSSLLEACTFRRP

Row | Structure (SMILES) | Kb (DNA binding constant) [1] | IC50 [2] | Ksv (Stern-Volmer quenching constant, EB-DNA system) (EB-DNA system (CT-DNA)) | K50 (EB Displacement Assay) (EB-DNA system (CT-DNA)) | Ka (association binding constant), apo-Tf (Apo-transferrin (apo-Tf)) | n (Hill Coefficient), apo-Tf (Apo-transferrin (apo-Tf)) | n (Number of Binding Sites), apo-Tf (Apo-transferrin (apo-Tf)) | Ksv (Stern-Volmer constant), apo-Tf (Apo-transferrin (apo-Tf)) | Kq (bimolecular quenching constant), apo-Tf (Apo-transferrin (apo-Tf)) | fa (fraction of fluorophore accessible to the quencher), apo-Tf (Apo-transferrin (apo-Tf)) | Kd (Apo-transferrin (apo-Tf)) | Kd [3] | IC50 [4] | Ka (association binding constant), HSA [5] | n (Hill Coefficient), HSA [5] | n (Number of Binding Sites), HSA [5] | Ksv (Stern-Volmer constant), HSA [5] | Kq (bimolecular quenching constant), HSA [5] | fa (fraction of fluorophore accessible to the quencher), HSA [5] | IC50 [6] | further results
1 | CCn1cc(C(=O)[O][La]([OH])[O]C(=O)c2cn(CC)c3cc4c(cc3c2=O)OCO4)c(=O)c2cc3c(cc21)OCO3.O [La oxo, [La(oxo)(OH)(H2O)]] | 2.57 (± 0.17) × 10^5 L∙mol^−1 | > 100 µM | 1.27 (±0.03) × 10^4 | 37.05 ± 8.86 µM | (0.53 ± 0.23) × 10^4 M^−1 | 1.71 ± 0.21 | 0.77 ± 0.03 | (14.13 ± 1.46) × 10^4 M^−1 | 1.413e+13 M⁻¹ s⁻¹ | 0.68 ± 0.03 | 8.89 ± 2.11 µM | 6.22 ± 1.05 µM | > 200 µM | (5.80 ± 2.01) × 10^5 M^−1 | 1.74 ± 0.21 | 1.14 ± 0.02 | (6.82 ± 0.74) × 10^4 M^−1 | 6.82e+12 M⁻¹ s⁻¹ | 1.26 ± 0.11 | 52.1 ± 5.54 µM | Ksv (Stern-Volmer quenching constant, EB-DNA system) (EB-DNA system (CT-DNA); listed as La-oxo): (1.27 ± 0.03) × 10^4
2 | CCn1cc(C(=O)[O][Sm]([OH])[O]C(=O)c2cn(CC)c3cc4c(cc3c2=O)OCO4)c(=O)c2cc3c(cc21)OCO3.O.O [Sm oxo, [Sm(oxo)(OH)(H2O)] · H2O] | 9.33 (± 1.46) × 10^4 L∙mol^−1 | 40.4 ± 6.27 µM | (1.21 ± 0.03) × 10^4 | 41.55 ± 19.32 µM | (4.16 ± 1.09) × 10^4 M^−1 | 2.03 ± 0.32 | 0.95 ± 0.02 | (9.34 ± 0.66) × 10^4 M^−1 | 9.34e+12 M⁻¹ s⁻¹ | 0.85 ± 0.05 | 5.73 ± 0.55 µM | 4.69 ± 0.87 µM | > 200 µM | (4.28 ± 2.12) × 10^5 M^−1 | 1.55 ± 0.37 | 1.11 ± 0.04 | (6.56 ± 0.90) × 10^4 M^−1 | 6.56e+12 M⁻¹ s⁻¹ | 1.44 ± 0.15 | 41.5 ± 15.3 µM | 

Source: paper PMC7699381, “Rare-Earth Metal Complexes of the Antibacterial Drug Oxolinic Acid: Synthesis, Characterization, DNA/Protein Binding and Cytotoxicity Studies” (Molecules, 2020)
